Source: patent EP4653432A1, “AUTOPHAGY INDUCING COMPOUNDS AND USES THEREOF IN THE PREVENTION OR THERAPY OF DISEASES” (Samsara Therapeutics Inc., priority 2024, dated 2025)
Structures can show the parent of a compound that is named as a salt.

Tested on: U2OS cell line stably expressing RFP-eGFP-hLC3b (a tandem reporter cell line)
Test: Tandem reporter assay (assay to assess autophagic flux)
Format: cell-based, Human
Settings: result in words; at different concentrations
Method: Selected compounds of this invention were also assessed for their ability to stimulate autophagy using a U2OS cell line stabling expressing RFP-eGFP-hLC3b (a tandem reporter cell line). During the process of autophagy, the cargo to be degraded is first enveloped by organelles called autophagosomes. These autophagosomes then fuse with lysosomes, causing them to become acidified and their digestive enzymes to become activated. The term "autophagic flux" is used to represent the dynamic process of autophagy: autophagic flux refers to the whole process of autophagy, including autophagosome formation, maturation, fusion with lysosomes, subsequent breakdown, and the release of macromolecules back into the cytosol (Zhang XJ, Chen S, Huang KX, Le WD. Why should autophagic flux be assessed? Acta Pharmacol Sin. 2013 May; 34(5): 595-9. doi: 10.1038/aps.2012.184. Epub 2013 Mar 11). Compounds that stimulate autophagic flux stimulate the dynamic process of autophagy (the whole process of autophagy). […] Using a fluorescent microscope, the number of autophagosomes and autolysosomes can be counted, allowing for the monitoring of both the induction of autophagy (total puncta count) and the rate of autophagic flux (ratio of red-only to red-and-green puncta). The influence of small molecules on autophagy induction and flux can be assessed using this system by comparison to a non-treated control. […]

| SMILES | number of RFP-only puncta (autolysosomes) relative to a DMSO-treated control (non-treated control) |
| --- | --- |
| CC(C)c1ccc(-n2cc(C#N)c(-c3nc(C(=O)N(C(C)C)C4CCNCC4)cs3)n2)nc1.Cl [Compound E, N-isopropyl-N-4-piperidyl-2-[4-cyano-1-(5-isopropyl-2-pyridyl)-3-pyrazolyl]-1,3-thiazole-4-carboxamide hydrochloride] | Particularly good results |
| CC(C)N(C(=O)c1csc(-c2cnc3ccccn23)n1)[C@@H]1CCNC1 [SLN5-X-0978, (R)-2-(imidazo[1,2-a]pyridin-3-yl)-N-Isopropyl-N-(pyrrolidin-3-yl) thiazole-4-carboxamide hydrochloride] | Particularly good results |
